This note sets out measurements from ChEMBL document CHEMBL5505992, “Novel membrane-targeting isoxanthohumol-amine conjugates for combating methicillin-resistant Staphylococcus aureus (MRSA) infections” (Eur J Med Chem, 2024).

Activity calls are given as the source filed them. The calls are words filed in the database; no cut-off is given here.

Data set [1] is described as follows: Toxicity in Kunming mouse assessed as effect on skin at 10 mg/kg, sc measured after 24 hrs by H and E staining based analysis. Type of data set: organism-based. Particulars: in vivo.
Data set [2] in a line: Toxicity in Kunming mouse assessed as effect on lung at 10 mg/kg, sc measured after 24 hrs by H and E staining based analysis. The data set is classed as organism-based. The following applies: in vivo.
For data set [3], the system named is Staphylococcus aureus. Briefly: Antibacterial activity against methicillin-resistant Staphylococcus aureus infected in Kunming mouse skin infection model assessed as appearance of small number of infiltrated inflammatory cells in skin dermis at 8 mg/kg,sc measured after 24 hrs. The data set is classed as functional, organism-based.
Data set [4] relates to Cell membrane. Briefly: Induction of cell membrane permeability in methicillin-resistant Staphylococcus aureus clinical isolate MRSA-16 assessed as decrease in intact cells (Q3 region) at 64 ug/ml incubated for 2 hrs by SYTO 9 and PI staining based flow cytometry analysis (reference value: 99.07%). Type of data set: cell membranes. Set-up: scale not given: the % may be the effect or the level left. The following applies: dose 64.0 µg/ml. A general note: A flow cytometer gives signals particle by particle.

The test system of data set [5] is Staphylococcus aureus. Briefly: Antibacterial activity against Staphylococcus aureus ATCC 29213 measured after 20 passages for 16 to 18 hrs. Particulars: time 16-18 hrs. The data set is classed as functional.
Data set [6] has as its system Staphylococcus aureus. Briefly: Bactericidal activity against Staphylococcus aureus ATCC 29213 assessed as bacterial killing measured upto 8 hrs by time kill assay. Type of data set: functional, organism-based.
Data set [7] is described as follows: Selectivity index, ratio of HC50 for hemolytic activity in sheep erythrocytes to MIC for antibacterial activity against Staphylococcus aureus ATCC 29213. Type of data set: toxicity, cell-based. The following applies: read-out: Selectivity Index.
Data set [8] in a line: Toxicity in Kunming mouse assessed as survival rate at 80 mg/kg, sc measured after 24 hrs relative to control. The data set is classed as organism-based. The following applies: in vivo.
Data set [9] deals with Cell membrane. Briefly: Induction of cell membrane permeability in methicillin-resistant Staphylococcus aureus clinical isolate MRSA-16 assessed as dead cells (Q1 region) at 8 ug/ml incubated for 2 hrs by SYTO 9 and PI staining based flow cytometry analysis (reference value: 0.00%). Particulars: dose 8.0 µg/ml. Type of data set: cell membranes.
In data set [10] the test system is Cell membrane. Briefly: Disruption of cell membrane in methicillin-resistant Staphylococcus aureus clinical isolate MRSA-16 assessed as increase in intracellular DNA leakage incubated for 4 hrs by microspectrophotometer analysis. Type of data set: cell membranes.
For data set [11], the system named is Cell membrane. Briefly: Induction of cell membrane permeability in methicillin-resistant Staphylococcus aureus clinical isolate MRSA-16 assessed as decrease in intact cells (Q3 region) at 16 ug/ml incubated for 2 hrs by SYTO 9 and PI staining based flow cytometry analysis (reference value: 99.07%). Particulars: dose 16.0 µg/ml. Further details: scale not given: the % may be the effect or the level left. Type of data set: cell membranes.

Data set [12] in a line: Toxicity in Kunming mouse assessed as animal death at 20 mg/kg, sc measured after 24 hrs. Type of data set: organism-based. Particulars: in vivo.
In data set [13] the test system is Staphylococcus aureus. Briefly: Antibacterial activity against methicillin-resistant Staphylococcus aureus clinical isolate MRSA-16 measured after 16 to 18 hrs by CLSI method. Type of data set: functional. Particulars: time 16-18 hrs.
The subject of data set [14] is Staphylococcus aureus. Briefly: Antibacterial activity against methicillin-resistant Staphylococcus aureus clinical isolate MRSA-21 measured after 16 to 18 hrs by CLSI method. The data set is classed as functional. Particulars: time 16-18 hrs.
Data set [15] relates to Staphylococcus aureus. Briefly: Antibacterial activity against methicillin-resistant Staphylococcus aureus clinical isolate MRSA-14 measured after 16 to 18 hrs by CLSI method. The data set is classed as functional. Particulars: time 16-18 hrs.
The nature of data set [16]: Toxicity in Kunming mouse assessed as effect on kidney at 10 mg/kg, sc measured after 24 hrs by H and E staining based analysis. Type of data set: organism-based. Particulars: in vivo.
Data set [17] in a line: Toxicity in Kunming mouse assessed as effect on heart at 10 mg/kg, sc measured after 24 hrs by H and E staining based analysis. The data set is classed as organism-based. Particulars: in vivo.
For data set [18], the system named is Staphylococcus aureus. Briefly: Antibacterial activity against methicillin-resistant Staphylococcus aureus infected in Kunming mouse skin infection model assessed as smooth dorsal skin at 8 mg/kg,sc measured after 24 hrs. The data set is classed as functional, organism-based.
The test system of data set [19] is Cell membrane. Briefly: Disruption of cell membrane in methicillin-resistant Staphylococcus aureus clinical isolate MRSA-16 assessed as fold increase in intracellular ROS production at 64 ug/ml measured after 40 mins by DCFH-DA dye based fluorescence assay. Particulars: dose 64.0 µg/ml. Type of data set: cell membranes.
The nature of data set [20]: Toxicity in Kunming mouse assessed as histopathological abnormalities in skin at 10 mg/kg, sc measured after 24 hrs by H and E staining based analysis. The data set is classed as organism-based. The following applies: in vivo.
The test system of data set [21] is Cell membrane. Briefly: Induction of cell membrane permeability in methicillin-resistant Staphylococcus aureus clinical isolate MRSA-16 assessed as dead cells (Q1 region) at 64 ug/ml incubated for 2 hrs by SYTO 9 and PI staining based flow cytometry analysis (reference value: 0.00%). The following applies: dose 64.0 µg/ml. The data set is classed as cell membranes.

The subject of data set [22] is Cell membrane. Briefly: Induction of cell membrane permeability in methicillin-resistant Staphylococcus aureus clinical isolate MRSA-16 assessed as decrease in intact cells (Q3 region) at 8 ug/ml incubated for 2 hrs by SYTO 9 and PI staining based flow cytometry analysis (reference value: 99.07%). Type of data set: cell membranes. Further details: scale not given: the % may be the effect or the level left. Particulars: dose 8.0 µg/ml.

For `CCCC[N+](C)(CCCC)CCCCCOc1ccc(C2CC(=O)c3c(OC)cc(OCCCCC[N+](C)(CCCC)CCCC)c(CC=C(C)C)c3O2)cc1.[I-].[I-]` (configuration not stated), the Activity entry in data set [1] was “Non-Toxic”; in [2], “Non-Toxic”; with Cell membrane [4] it was 0%; in the data set with Staphylococcus aureus [6], “Dose-Dependent Effect”; with Cell membrane [9], 2.94%; in the data set with Cell membrane [11] it was 1.58%. In addition, the Activity result is “Toxic” in [12]; “Non-Toxic” in data set [16]; “Non-Toxic” in data set [17]; “Non-Toxic” in data set [20]; 100% with Cell membrane [21]; 39.7% with Cell membrane [22]. Moreover, the outcome with Staphylococcus aureus [3], in the data set on Cell membrane [10] and with Staphylococcus aureus [18] was Active. In addition, the MIC against Staphylococcus aureus [5] came out at 1 µg/mL; with Staphylococcus aureus [13], 0.25 µg/mL; with Staphylococcus aureus [14], 0.25 µg/mL; against Staphylococcus aureus [15], 0.25 µg/mL. For the same compound, the selectivity ratio in data set [7] was > 1280. Besides, the survival at 24 h in data set [8] was found to be 40%. Further, in the data set on Cell membrane [19], the fold change (FC) was 4.

Broadly, the MIC is the least concentration at which growth counts as inhibited.
